ChEMBL document CHEMBL5537181 (J Med Chem, 2024)
The source made the active and inactive calls. The rule behind the calls is not given here.

What was measured:
[1] = biological target: Neuronal acetylcholine receptor; alpha9/alpha10 (Homo sapiens, UniProt Q9GZZ6+Q9UGM1); experiment: Antagonist activity at human alpha9alpha10 nAChR expressed in acetylcholine-induced Xenopus laevis oocytes assessed as inhibition of acetylcholine-induced current by two electrode voltage-clamp assay; format: cell-based, Oocyte
[2] = biological target: Voltage-dependent N-type calcium channel subunit alpha-1B (Homo sapiens, UniProt Q00975); experiment: Inhibition of human Cav2.2 channel transfected in HEK293T cells co-expressed with human GABAB receptor assessed as inhibition of Cav2.2-mediated Ba2+ current measured for 3 to 5 days by whole-cell patch clamp assay; format: cell-based
[3] = tested on: Rattus norvegicus; experiment: Analgesic activity in Chronic constriction injury rat model assessed as decrease in hyperalgesia at 300 microg/kg,IM administrated every 2 hrs and measured after 24 hrs; format: functional, organism-based; settings: dose 300.0 µg/kg

Neuronal acetylcholine receptor; alpha9/alpha10, sequence (Q9UGM1 whole entry): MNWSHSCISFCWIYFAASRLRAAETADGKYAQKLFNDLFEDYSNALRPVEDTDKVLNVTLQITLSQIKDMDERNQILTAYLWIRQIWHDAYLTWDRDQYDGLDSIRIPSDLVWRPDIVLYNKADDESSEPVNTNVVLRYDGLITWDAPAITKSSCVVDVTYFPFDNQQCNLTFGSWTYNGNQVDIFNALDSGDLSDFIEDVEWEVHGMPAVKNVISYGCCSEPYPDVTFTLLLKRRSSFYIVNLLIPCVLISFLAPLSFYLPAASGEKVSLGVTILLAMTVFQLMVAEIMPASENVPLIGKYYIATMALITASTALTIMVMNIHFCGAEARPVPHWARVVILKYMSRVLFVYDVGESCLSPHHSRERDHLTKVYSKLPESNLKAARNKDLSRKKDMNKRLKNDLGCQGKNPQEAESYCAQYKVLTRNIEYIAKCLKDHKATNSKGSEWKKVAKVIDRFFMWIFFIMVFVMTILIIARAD
Neuronal acetylcholine receptor; alpha9/alpha10, sequence (Q9GZZ6 whole entry): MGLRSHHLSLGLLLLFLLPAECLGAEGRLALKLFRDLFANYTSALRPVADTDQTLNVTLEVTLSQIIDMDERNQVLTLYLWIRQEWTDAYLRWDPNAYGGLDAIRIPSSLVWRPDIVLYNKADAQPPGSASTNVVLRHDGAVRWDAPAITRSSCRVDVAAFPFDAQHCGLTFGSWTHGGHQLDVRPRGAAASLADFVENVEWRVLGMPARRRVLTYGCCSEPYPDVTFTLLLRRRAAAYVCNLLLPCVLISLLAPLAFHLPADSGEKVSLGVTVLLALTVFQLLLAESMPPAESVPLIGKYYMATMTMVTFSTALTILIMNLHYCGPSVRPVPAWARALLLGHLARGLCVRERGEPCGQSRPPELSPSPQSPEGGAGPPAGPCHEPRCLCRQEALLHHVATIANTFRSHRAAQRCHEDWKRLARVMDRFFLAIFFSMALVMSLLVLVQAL
Voltage-dependent N-type calcium channel subunit alpha-1B, sequence (Q00975 whole entry): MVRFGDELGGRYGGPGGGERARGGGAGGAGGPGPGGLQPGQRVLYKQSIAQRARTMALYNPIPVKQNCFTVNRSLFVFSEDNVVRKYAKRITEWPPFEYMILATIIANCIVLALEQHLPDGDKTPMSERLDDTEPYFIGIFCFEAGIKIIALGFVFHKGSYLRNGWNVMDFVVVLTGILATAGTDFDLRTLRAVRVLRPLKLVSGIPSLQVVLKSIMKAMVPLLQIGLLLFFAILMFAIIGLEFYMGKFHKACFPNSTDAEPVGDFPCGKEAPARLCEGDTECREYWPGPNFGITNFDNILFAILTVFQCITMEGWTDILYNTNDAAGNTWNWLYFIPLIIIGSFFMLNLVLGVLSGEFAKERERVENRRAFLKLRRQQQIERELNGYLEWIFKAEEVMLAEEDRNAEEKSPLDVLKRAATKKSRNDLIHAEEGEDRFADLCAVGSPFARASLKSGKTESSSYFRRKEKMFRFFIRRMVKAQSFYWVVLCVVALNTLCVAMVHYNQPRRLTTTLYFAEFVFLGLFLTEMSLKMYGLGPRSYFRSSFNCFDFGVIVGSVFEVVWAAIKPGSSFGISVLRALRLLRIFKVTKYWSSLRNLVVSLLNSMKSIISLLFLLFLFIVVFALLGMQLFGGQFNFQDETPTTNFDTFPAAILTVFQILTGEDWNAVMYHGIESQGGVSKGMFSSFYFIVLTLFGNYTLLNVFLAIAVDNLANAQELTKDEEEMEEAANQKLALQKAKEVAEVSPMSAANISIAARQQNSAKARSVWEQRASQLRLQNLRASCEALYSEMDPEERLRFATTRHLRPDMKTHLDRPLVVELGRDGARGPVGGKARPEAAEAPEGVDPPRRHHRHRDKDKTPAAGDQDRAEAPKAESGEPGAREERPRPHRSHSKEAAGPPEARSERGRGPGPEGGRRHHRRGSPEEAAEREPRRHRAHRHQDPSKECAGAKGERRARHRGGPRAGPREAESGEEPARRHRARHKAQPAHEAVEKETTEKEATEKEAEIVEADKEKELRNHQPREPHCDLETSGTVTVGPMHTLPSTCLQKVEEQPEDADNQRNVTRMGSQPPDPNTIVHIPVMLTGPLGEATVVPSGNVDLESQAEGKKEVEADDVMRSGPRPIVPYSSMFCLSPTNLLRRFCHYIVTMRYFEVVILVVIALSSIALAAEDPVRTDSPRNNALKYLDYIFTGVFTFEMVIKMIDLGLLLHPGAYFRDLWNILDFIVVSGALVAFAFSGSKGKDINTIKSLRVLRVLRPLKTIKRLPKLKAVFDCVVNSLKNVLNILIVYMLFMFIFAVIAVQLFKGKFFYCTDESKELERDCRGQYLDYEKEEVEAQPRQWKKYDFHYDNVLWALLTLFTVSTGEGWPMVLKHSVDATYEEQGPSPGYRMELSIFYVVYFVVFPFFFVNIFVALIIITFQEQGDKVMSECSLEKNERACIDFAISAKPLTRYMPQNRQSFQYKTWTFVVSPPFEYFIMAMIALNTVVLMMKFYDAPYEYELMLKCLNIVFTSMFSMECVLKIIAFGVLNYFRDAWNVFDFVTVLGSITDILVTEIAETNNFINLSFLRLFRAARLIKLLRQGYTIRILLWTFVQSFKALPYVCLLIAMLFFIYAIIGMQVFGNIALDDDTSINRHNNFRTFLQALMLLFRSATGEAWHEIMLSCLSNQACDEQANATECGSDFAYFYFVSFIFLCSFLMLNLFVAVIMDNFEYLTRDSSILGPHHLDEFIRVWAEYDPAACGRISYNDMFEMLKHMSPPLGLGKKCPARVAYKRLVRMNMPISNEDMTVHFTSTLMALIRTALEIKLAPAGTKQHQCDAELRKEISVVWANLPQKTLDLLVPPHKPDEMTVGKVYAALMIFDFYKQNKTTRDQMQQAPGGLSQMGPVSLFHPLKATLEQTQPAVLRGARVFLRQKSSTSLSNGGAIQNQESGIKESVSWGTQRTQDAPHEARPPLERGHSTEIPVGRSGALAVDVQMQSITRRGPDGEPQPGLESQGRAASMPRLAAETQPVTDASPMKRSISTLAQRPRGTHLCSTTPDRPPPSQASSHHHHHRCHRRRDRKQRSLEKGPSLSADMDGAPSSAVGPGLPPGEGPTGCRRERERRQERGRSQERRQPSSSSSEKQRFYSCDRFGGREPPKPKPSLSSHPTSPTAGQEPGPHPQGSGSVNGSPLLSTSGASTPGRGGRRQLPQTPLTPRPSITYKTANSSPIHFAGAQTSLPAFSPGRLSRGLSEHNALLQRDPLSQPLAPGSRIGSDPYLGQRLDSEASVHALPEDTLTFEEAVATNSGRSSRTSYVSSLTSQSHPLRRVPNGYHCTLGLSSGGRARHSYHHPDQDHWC

Compound	IC50 [1]	IC50 [2]	Activity [3]
CC[C@H](C)[C@@H]1NC(=O)[C@H](CCCNC(=N)N)NC(=O)[C@H](CCCNC(=N)N)NC(=O)[C@@H]2CSSC[C@H](NC(=O)[C@H](N)[C@H](C)O)C(=O)N[C@@H](CCCNC(=N)N)C(=O)N[C@@H](CO)C(=O)N[C@@H](CO)C(=O)NCC(=O)N[C@@H](CCCNC(=N)N)C(=O)N[C@@H](Cc3ccc(O)cc3)C(=O)N[C@H](CSSC[C@H](C(=O)N[C@H](C(N)=O)C(C)C)NC(=O)[C@H](C)NC(=O)[C@H](CC(=O)O)NC(=O)[C@H]([C@@H](C)O)NC1=O)C(=O)N[C@@H](CCCNC(=N)N)C(=O)N[C@@H](CO)C(=O)N1CCC[C@H]1C(=O)N[C@@H](Cc1ccc(O)cc1)C(=O)N[C@@H](CC(=O)O)C(=O)N[C@@H](CCCNC(=N)N)C(=O)N[C@@H](CCCNC(=N)N)C(=O)N[C@@H](CCCNC(=N)N)C(=O)N[C@@H](CCCNC(=N)N)C(=O)N[C@@H](Cc1ccc(O)cc1)C(=O)N2	116 nM	3 nM	
C[C@@H](O)[C@@H]1NC(=O)[C@@H]2CSSC[C@@H](C(=O)N[C@@H](Cc3ccc(O)cc3)C(=O)O)NC(=O)[C@H](CCC(N)=O)NC(=O)[C@H](Cc3ccc(O)c(I)c3)NC(=O)[C@H](CCCNC(=N)N)NC(=O)[C@H](CSSC[C@H](NC(=O)CN)C(=O)N2)NC(=O)[C@H](CCCNC(N)=O)NC(=O)[C@@H]2CCCN2C(=O)[C@H](CC(=O)O)NC1=O			Active
